row,SMILES,melting point
1,"CCOC(=O)CN(Cc1ccccc1Cl)c1ccc(C(O)(C(F)(F)F)C(F)(F)F)cc1 [Example 21, Ethyl N-(2-chlorobenzyl)-N-{4-[2,2,2-trifluoro-1-hydroxy-1-(trifluoromethyl)ethyl]phenyl}glycinate]",146 °C
2,"CCOC(=O)C(C)(C)Nc1ccc(C(O)(C(F)(F)F)C(F)(F)F)cc1 [Example 3, Ethyl 2-methyl-N-{4-[2,2,2-trifluoro-1-hydroxy-1-(trifluoromethyl)ethyl]phenyl}-alaninate]",93 °C
3,"CCOC(=O)CN(Cc1ccccc1)c1ccc(C(O)(C(F)(F)F)C(F)(F)F)cc1 [Example 19, Ethyl N-benzyl-N-{4-[2,2,2-trifluoro-1-hydroxy-1-(trifluoromethyl)ethyl]-phenyl}glycinate]",116 °C
4,"CCOC(=O)CCN(C)c1ccc(C(O)(C(F)(F)F)C(F)(F)F)cc1 [Example 14, Ethyl N-methyl-N-{4-[2,2,2-trifluoro-1-hydroxy-1-(trifluoromethyl)ethyl]phenyl}-beta-alaninate]",77 °C
5,"CCOC(=O)CC(C)Nc1ccc(C(O)(C(F)(F)F)C(F)(F)F)cc1 (centres unmarked) [Example 1, Ethyl 3-({4-[2,2,2-trifluoro-1-hydroxy-1-(trifluoromethyl)ethyl]phenyl}amino)-butanoate]",103 °C
6,"CCOC(=O)CN(Cc1cccnc1)c1ccc(C(O)(C(F)(F)F)C(F)(F)F)cc1 [Example 22, Ethyl N-(pyridin-3-ylmethyl)-N-{4-[2,2,2-trifluoro-1-hydroxy-1-(trifluoromethyl)ethyl]phenyl}glycinate]",55 °C
7,"CCOC(=O)CN(CC(F)(F)F)c1ccc(C(O)(C(F)(F)F)C(F)(F)F)cc1 [Example 5, Ethyl N-(2,2,2-trifluoroethyl)-N-{4-[2,2,2-trifluoro-1-hydroxy-1-(trifluoromethyl)-ethyl]phenyl}glycinate]",67 °C

# Results, then the compound that gave them:
row,melting point,SMILES
1,66.5 °C,"CN(CC(=O)OCc1ccc(Cl)cc1)c1ccc(C(O)(C(F)(F)F)C(F)(F)F)cc1 [Example 35, 4-Chlorobenzyl N-methyl-N-{4-[2,2,2-trifluoro-1-hydroxy-1-(trifluoromethyl)-ethyl]phenyl}glycinate]"
2,149 °C,CN(CC(=O)N1CCOCC1)c1ccc(C(O)(C(F)(F)F)C(F)(F)F)cc1 [Example 38]
3,66.5 °C,"CCOC(=O)CN1CCCc2cc(C(O)(C(F)(F)F)C(F)(F)F)ccc21 [Example 31, Ethyl [6-[2,2,2-trifluoro-1-hydroxy-1-(trifluoromethyl)ethyl]-3,4-dihydroquinolin-1(2H)-yl]acetate]"
4,111 °C,"CCOC(=O)CN(Cc1ccc(Cl)cc1Cl)c1ccc(C(O)(C(F)(F)F)C(F)(F)F)cc1 [Example 40, Ethyl N-(2,4-dichlorobenzyl)-N-{4-[2,2,2-trifluoro-1-hydroxy-1-(trifluoromethyl)ethyl]phenyl}glycinate]"
5,68 °C,"CCOC(=O)CN(Cc1ccc(OC)cc1)c1ccc(C(O)(C(F)(F)F)C(F)(F)F)cc1 [Example 43, Ethyl N-(4-methoxybenzyl)-N-{4-[2,2,2-trifluoro-1-hydroxy-1-(trifluoromethyl)ethyl]phenyl}glycinate]"
6,121 °C,"CON(C)C(=O)CN(C)c1ccc(C(O)(C(F)(F)F)C(F)(F)F)cc1 [Example 32, N˜1˜-Methoxy-N˜1˜N˜2˜-dimethyl-N˜2˜-{4-[2,2,2-trifluoro-1-hydroxy-1-(trifluoromethyl)ethyl]phenyl}glycinamide]"
7,184 °C,CN(CC(=O)N1CCCC1)c1ccc(C(O)(C(F)(F)F)C(F)(F)F)cc1 [Example 39]
8,81.5 °C,"CCOC(=O)CN(Cc1cccc(Cl)c1)c1ccc(C(O)(C(F)(F)F)C(F)(F)F)cc1 [Example 41, Ethyl N-(3-chlorobenzyl)-N-{4-[2,2,2-trifluoro-1-hydroxy-1-(trifluoromethyl)ethyl]phenyl}glycinate]"
9,107 °C,"CCOC(=O)C1(Nc2ccc(C(O)(C(F)(F)F)C(F)(F)F)cc2)CCC(C(C)(C)C)CC1 (centres unmarked) [Example 49, Ethyl 4-tert-butyl-1-({4-[2,2,2-trifluoro-1-hydroxy-1-(trifluoromethyl)ethyl]phenyl}amino)cyclohexanecarboxylate]"
10,142.6 °C,"CCOC(=O)C1(Nc2ccc(C(O)(C(F)(F)F)C(F)(F)F)cc2)CCC(C)CC1 (centres unmarked) [Example 50, Ehyl 4-methyl-1-({4-[2,2,2-trifluoro-1-hydroxy-1-(trifluoromethyl)ethyl]phenyl}amino)cyclohexanecarboxylate]"
